The compounds below were run against T1, Cathepsin K (Homo sapiens, UniProt P43235) (assay: Competitive inhibition of human recombinant cathepsin K using Z-FR-MCA fluorogenic substrate by Handerson plot analysis).
T1 sequence (P43235 whole entry): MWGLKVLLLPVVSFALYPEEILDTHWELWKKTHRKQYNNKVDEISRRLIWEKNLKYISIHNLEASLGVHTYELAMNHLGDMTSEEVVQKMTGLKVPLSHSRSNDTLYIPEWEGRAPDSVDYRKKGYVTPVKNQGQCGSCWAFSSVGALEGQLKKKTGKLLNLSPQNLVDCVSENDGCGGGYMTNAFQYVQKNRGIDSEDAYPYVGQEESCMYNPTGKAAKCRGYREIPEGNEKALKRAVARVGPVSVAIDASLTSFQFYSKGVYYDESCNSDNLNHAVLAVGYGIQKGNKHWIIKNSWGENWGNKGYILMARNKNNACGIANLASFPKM

Row | Ki | Compound
1 | 11 nM | CC(C)[C@H](NC(=O)[C@H](CO)NC(=O)NCCCCNC(=N)N)C(=O)N[C@H]1CCCN(C(=N)N)C1O (stereo partly specified)
2 | 41 nM | CC(C)[C@H](NC(=O)[C@H](CCCNC(=N)N)NC(=O)N[C@@H](Cc1ccccc1)C(=O)O)C(=O)NC1CCCN(C(=N)N)C1O (stereo in doubt; form 2)

Each compound was assayed against T1, Cathepsin K (assay: Competitive inhibition of human recombinant cathepsin K using Z-FR-MCA fluorogenic substrate by Dixon plot analysis).

Row | Ki | Compound
3 | 163 nM | CC(C)[C@H](NC(=O)[C@H](CCCNC(=N)N)NC(=O)N[C@@H](Cc1ccccc1)C(=O)O)C(=O)NC1CCCN(C(=N)N)C1=O (stereo partly specified)
4 | 393 nM | CC(C)[C@H](NC(=O)[C@H](CCCNC(=N)N)NC(=O)N[C@@H](Cc1ccccc1)C(=O)O)C(=O)NC1=CN(C(=N)N)CCC1
5 | 69 nM | CC(C)[C@H](NC(=O)[C@H](CCCNC(=N)N)NC(=O)N[C@@H](Cc1ccccc1)C(=O)O)C(=O)NC1CCCN(C(=N)N)C1O (stereo in doubt; form 2)
6 | 105 nM | CC(C)[C@H](NC(=O)[C@H](CCCNC(=N)N)NC(=O)N[C@@H](Cc1ccccc1)C(=O)O)C(=O)NC1CCCN(C(=N)N)C1O (stereo in doubt; form 1)
